Assay results published in PMC6114901, “An automated screening method for detecting compounds with goitrogenic activity using transgenic zebrafish embryos” (PLoS ONE, 2018).
Where two headings read alike, the source gives them in different places.

Columns and labels:
[1] = test system: thyroglobulin (tg:mCherry reporter gene); assay: animal or person; settings: for EC50: read-out: EC50 (tg:mCherry induction)
Procedure: In order to avoid interference of test chemicals with early thyroid gland development, zebrafish embryos were cultured in exposure medium until 48 hours post fertilization (hpf). Subsequently, they were exposed to seven known thyroid endocrine disrupters for 3 days (48 to 120 hpf). The non-goitrogenic compound 3,4-dichloroaniline, that is used as reference compound in the zebrafish acute embryo toxicity test was used as negative control. […] No solvents were used. […] Five concentrations and one control were tested per compound and replicate. In the second replicate the range of concentration was adjusted to improve fitting of concentration-response curves. […] Given the lack of appropriate spectral properties stability of exposure concentrations was not analysed for potassium perchlorate. Embryos were kept in the incubator at 26°C and a 14:10 hours light:dark cycle. The exposure was conducted in crystallisation dishes covered with watchmaker glasses with 30 embryos in 30 ml exposure medium (for exposure medium refer to [26]).
Embryos were positioned ventrally toward the microscope objective. Per embryo a bright field image, an autofocus fluorescence image and a Z-stack of 9 images were obtained. The Z-stack was required in case of autofocus failure and manual selection of the focal plane. Fluorescence images were obtained with 400 ms of fluorescent light exposure at maximal light intensity and a gain of 1. […] However, care was taken, that at least 10 images per concentration and replicates were assessed. To avoid a time bias during the analysis the sequence of wells for analysis was arranged in order to obtain a uniform distribution over the entire period of analysis.
The images were analysed using a KNIME workflow (Version 3.3.3., [29]) with the extension “KNIME image processing”. In brief, images were loaded into the workflow and the background was removed automatically using the “rolling ball” procedure of the image J plugin (rolling ball size set to 50 pixels). Subsequently the area containing the thyroid gland was manually selected by drawing a rectangle around the appropriate region using the interactive annotation node. […] If possible the autofocus images were used. In case that the thyroid gland was out of focus due to the presence of autofluorescing pigment cells, an appropriate image from the Z-stack was selected. All subsequent steps were conducted without any user interaction. […] Finally the sum of pixel (reflecting area of the thyroid gland and intensity of fluorescence) was calculated for the labeled area and used as a proxy of fluorescence intensity (see Fig 1 for an overview of the workflow). For each replicate the sum was of pixels was normalized by setting controls to the value of one. For data of individual embryos see S4 Table. The KNIME workflow used for image analysis is provided as supplement file (S1 Workflow).
To characterize the potency of the investigated goitrogenic compounds, we calculated EC50 values of tg:mcherry fluorescence using the pixel sum obtained from image analysis. For each replicate the fluorescence intensity was normalized by dividing the mean fluorescence intensity of each concentration with the mean control fluorescence intensity. Concentration-response curves of tgmcherry fluorescence were fitted to the data using the Hill-slope equation (Eq 1) and used to estimate EC50 values.
The parameter Min was set to 1 and the slope (p) and the maximum fluorescence (Max) were estimated.

[2] = ref chemspider (http://www.chemspider.com); cited from earlier work
[3] = test system: thyroid hormone levels (T4); settings: cited from earlier work; for EC50: read-out: EC50 T4 reduction
[4] = test system: zebrafish embryos; assay: in vivo; settings: for Slope: mortality concentration-response curve
Procedure: Fish embryo acute toxicity tests were performed similar as described previously, using 10 or 25 embryos per concentration and replicate exposed in crystallization dishes from 48 to 120 hpf. No exchange of exposure media was performed. Lethality was identified by coagulation, missing heartbeat, a non–detached tail and/or missing of somites. Raw data for mortality and phenotypic assessment are provided as S1 Table. Concentration-response curves for mortality are shown in S2 Fig.

[5] = reduction of thyroid hormone levels (immunostaining), ref Thienpont et al. [13]
[6] = 72 hpf, 17777.78 µmol/L, replicate 2, 10 embryos
[7] = 72 hpf, 26666.67 µmol/L, replicate 2, 10 embryos
[8] = 72 hpf, 40000.00 µmol/L, replicate 2, 10 embryos
[9] = 72 hpf, 60000.00 µmol/L, replicate 2, 10 embryos
[10] = 72 hpf, 90000.00 µmol/L, replicate 2, 10 embryos
[11] = 96 hpf, 17777.78 µmol/L, replicate 2, 10 embryos
[12] = 96 hpf, 26666.67 µmol/L, replicate 2, 10 embryos
[13] = 96 hpf, 40000.00 µmol/L, replicate 2, 10 embryos
[14] = 96 hpf, 60000.00 µmol/L, replicate 2, 10 embryos
[15] = 96 hpf, 90000.00 µmol/L, replicate 2, 10 embryos
[16] = 120 hpf, 5625.00 µmol/L, replicate 1, 25 embryos
[17] = 120 hpf, 11250.00 µmol/L, replicate 1, 25 embryos
[18] = 120 hpf, 17777.78 µmol/L, replicate 2, 10 embryos
[19] = 120 hpf, 22500.00 µmol/L, replicate 1, 25 embryos
[20] = 120 hpf, 26666.67 µmol/L, replicate 2, 10 embryos
[21] = 120 hpf, 40000.00 µmol/L, replicate 2, 10 embryos
[22] = 120 hpf, 45000.00 µmol/L, replicate 1, 25 embryos
[23] = 120 hpf, 60000.00 µmol/L, replicate 2, 10 embryos
[24] = 120 hpf, 90000.00 µmol/L, replicate 1, 25 embryos
[25] = 120 hpf, 90000.00 µmol/L, replicate 2, 10 embryos

S=C1NCCN1 [Ethylenethiourea, N, N’-ethylenethiourea]
EC50 ([1]; Danio rerio): 366 µM
BMD 20 ([1]; zebrafish, in vivo): 246 µM
Slope ([1]; zebrafish, in vivo): 3.8
Log D (pH 7.4) [2]: -0.52
EC50 [3, 5]: 135 µM

CCCc1cc(=O)[nH]c(=S)[nH]1 [Propylthiouracil, 6-propyl-2-thiouracil]
EC50 ([1]; Danio rerio): 334 µM
BMD 20 ([1]; zebrafish, in vivo): 163 µM
Slope ([1]; zebrafish, in vivo): 1.7
EC50 ([3]; zebrafish, in vivo): 137 µM
TDI (T4) ([3]; zebrafish, in vivo): 20

Oc1cc(O)cc(O)c1 [Phloroglucinol, phloroglucinol]
EC50 ([1]; Danio rerio): 1100 µM
BMD 20 ([1]; zebrafish, in vivo): 252 µM
Slope ([1]; zebrafish, in vivo): 0.89
Log D (pH 7.4) [2]: 0.24
EC50 [3, 5]: 2700 µM
TDI (T4) ([3]; thyroid disruption index based on T4 reduction, ref Thienpont et al. [13]): 32

c1cn[nH]c1 [Pyrazole, pyrazole]
EC50 ([1]; zebrafish, in vivo): 637 µM
BMD 20 ([1]; zebrafish, in vivo): 399 µM
Slope ([1]; zebrafish, in vivo): 5.7
TDI ([1]; zebrafish, in vivo): 67
Log D (pH 7.4) [2]: 0.43
No Surviving [4, 6]: 10
No hatched [4, 6]: 0
No Surviving [4, 7]: 10
No hatched [4, 7]: 0
No Surviving [4, 8]: 10
No hatched [4, 8]: 0
Total Sublethal [4, 8]: 3
nobc (no blood circulation) [4, 8]: 3
No Surviving [4, 9]: 0
No hatched [4, 9]: 0
nohb (no heartbeat) [4, 9]: 10
No Surviving [4, 10]: 0
No hatched [4, 10]: 0
nohb (no heartbeat) [4, 10]: 10
No Surviving [4, 11]: 10
No hatched [4, 11]: 10
No Surviving [4, 12]: 10
No hatched [4, 12]: 8
No Surviving [4, 13]: 10
No hatched [4, 13]: 9
Total Sublethal [4, 13]: 10
nomov (no spontaneous movement) [4, 13]: 10
No Surviving [4, 14]: 0
No hatched [4, 14]: 0
k/f (coagulated) [4, 14]: 5
nohb (no heartbeat) [4, 14]: 5
No Surviving [4, 15]: 0
No hatched [4, 15]: 0
k/f (coagulated) [4, 15]: 10
No Surviving [4, 16]: 25
Sublethal effects Total Sublethal [4, 16]: 1
No Surviving [4, 17]: 25
Sublethal effects Total Sublethal [4, 17]: 1
No Surviving [4, 18]: 10
No hatched [4, 18]: 10
Lethal effects k/f [4, 19]: 2
No Surviving [4, 19]: 23
Sublethal effects Total Sublethal [4, 19]: 12
No Surviving [4, 20]: 10
No hatched [4, 20]: 9
Sublethal effects Total Sublethal [4, 20]: 4
Sublethal effects mch [4, 20]: 1
Sublethal effects nomov [4, 20]: 4
No Surviving [4, 21]: 10
No hatched [4, 21]: 9
Sublethal effects EdY / EdP [4, 21]: 9
Sublethal effects Total Sublethal [4, 21]: 10
Sublethal effects nobc [4, 21]: 4
Sublethal effects nomov [4, 21]: 8
Lethal effects k/f [4, 22]: 25
No Surviving [4, 22]: 0
Lethal effects k/f [4, 23]: 10
No Surviving [4, 23]: 0
No hatched [4, 23]: 0
Lethal effects k/f [4, 24]: 25
No Surviving [4, 24]: 0
Lethal effects k/f [4, 25]: 10
No Surviving [4, 25]: 0
No hatched [4, 25]: 0
LC50 ([4]; mortality after 24 h of exposure, S2 Fig, unit inferred): 49000 µM
LC50 ([4]; mortality after 48 h of exposure, S2 Fig, unit inferred): 49000 µM
Slope ([4]; 24 h of exposure): 56.2
Slope ([4]; 48 h of exposure): 56.2
Slope ([4]; 72 h of exposure): 132
LC50 ([4]; read-out: LC50 (48–120 hpf), mortality, embryos exposed 48–120 hpf): 42400 µM
